“And” between values parts separate entries of the source, which are not always exact repeats. Identical values can stand only once. Toxic doses and inconclusive results are not listed. Rule as the data show it: active = T/C of 150% or more; inactive = T/C below 125%.
System: L1210 leukemia ip in BDF1 mice, survival T/C
Experiment: NCI In Vivo Anticancer Drug Screen. Data for tumor model L1210 Leukemia (intraperitoneal) in B6D2F1 (BDF1) mice
Settings: endpoint: mean survival time, higher = longer survival
How it was run: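 Tumor was transplanted into mice, which were then dosed with test compound or vehicle alone. Survival was recorded for each group, and the treated figure was expressed relative to the control figure.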

[1] = dose: 100.0 mg/kg/injection, schedule: Q01DX001 (ip), vehicle: carboxymethylcellulose (CMC)
[2] = dose: 200.0 mg/kg/injection, schedule: Q01DX001 (ip), vehicle: carboxymethylcellulose (CMC)
[3] = dose: 400.0 mg/kg/injection, schedule: Q01DX001 (ip), vehicle: carboxymethylcellulose (CMC)
[4] = dose: 75.0 mg/kg/injection, schedule: Q01DX001 (ip), vehicle: saline
[5] = dose: 100.0 mg/kg/injection, schedule: Q04DX003 (ip), vehicle: saline
[6] = dose: 100.0 mg/kg/injection, schedule: Q04DX003 (ip), vehicle: Klucel (hydroxypropylcellulose) (HPC)
[7] = dose: 200.0 mg/kg/injection, schedule: Q04DX003 (ip), vehicle: Klucel (hydroxypropylcellulose) (HPC)
[8] = dose: 100.0 mg/kg/injection, schedule: Q01DX001 (ip), vehicle: Klucel (hydroxypropylcellulose) (HPC)
[9] = dose: 200.0 mg/kg/injection, schedule: Q01DX001 (ip), vehicle: Klucel (hydroxypropylcellulose) (HPC)
[10] = dose: 400.0 mg/kg/injection, schedule: Q01DX001 (ip), vehicle: Klucel (hydroxypropylcellulose) (HPC)
[11] = dose: 400.0 mg/kg/injection, schedule: Q04DX003 (ip), vehicle: Klucel (hydroxypropylcellulose) (HPC)
[12] = dose: 100.0 mg/kg/injection, schedule: Q04DX003 (ip), vehicle: saline with Tween-80
[13] = dose: 400.0 mg/kg/injection, schedule: Q04DX003 (ip), vehicle: saline with Tween-80
[14] = dose: 100.0 mg/kg/injection, schedule: Q01DX009 (ip), vehicle: saline with Tween-80
[15] = dose: 200.0 mg/kg/injection, schedule: Q01DX009 (ip), vehicle: saline with Tween-80
[16] = dose: 200.0 mg/kg/injection, schedule: Q04DX003 (ip), vehicle: saline with Tween-80
[17] = dose: 50.0 mg/kg/injection, schedule: Q01DX009 (ip), vehicle: saline with Tween-80

Measured: T/C

CCOC(=O)CC(=O)C1CCC2C3CC=C4CC(OC(=O)OCC)CCC4(C)C3CCC12C (stereo not drawn)
inactive: dose: 25.0 mg/kg/injection, schedule: Q01DX001 (sc), vehicle: olive oil, sesame oil, peanut oil 104 % of control | dose: 50.0 mg/kg/injection, schedule: Q01DX001 (sc), vehicle: olive oil, sesame oil, peanut oil 107 % of control | dose: 100.0 mg/kg/injection, schedule: Q01DX001 (sc), vehicle: olive oil, sesame oil, peanut oil 93 % of control

CNc1nc(N)c(N=O)c(Nc2ccc(Br)cc2)n1
inactive: [1] 102 % of control | [2] 104 % of control | [3] 102 % of control

O=C(O)C(Cl)C(=O)O
inactive: dose: 4.68 mg/kg/injection, schedule: Q01DX009 (ip), vehicle: saline 102 % of control | dose: 9.37 mg/kg/injection, schedule: Q01DX009 (ip), vehicle: saline 102 % of control | dose: 18.75 mg/kg/injection, schedule: Q01DX009 (ip), vehicle: saline 94 % of control | dose: 18.75 mg/kg/injection, schedule: Q04DX003 (ip), vehicle: saline 105 % of control | dose: 37.5 mg/kg/injection, schedule: Q04DX003 (ip), vehicle: saline 97 % of control | [4] 107 % of control

O=c1oc2ccccc2cc1-c1ccc([N+](=O)[O-])cc1
inactive: dose: 100.0 mg/kg/injection, schedule: Q04DX002 (ip), vehicle: Klucel (hydroxypropylcellulose) (HPC) 100 % of control | dose: 200.0 mg/kg/injection, schedule: Q04DX002 (ip), vehicle: Klucel (hydroxypropylcellulose) (HPC) 89 % of control | dose: 400.0 mg/kg/injection, schedule: Q04DX002 (ip), vehicle: Klucel (hydroxypropylcellulose) (HPC) 89 % of control

C#CCOC(C(=O)OC1CCN(C)CC1)(c1ccccc1)c1ccccc1
inactive: dose: 25.0 mg/kg/injection, schedule: Q04DX003 (ip), vehicle: saline 105 % of control | dose: 50.0 mg/kg/injection, schedule: Q04DX003 (ip), vehicle: saline 105 % of control | [5] 97 % of control and 98 % of control

O=C(Nc1ccccc1)Oc1cccc2cccnc12
inactive: dose: 50.0 mg/kg/injection, schedule: Q04DX003 (ip), vehicle: Klucel (hydroxypropylcellulose) (HPC) 100 % of control | [6] 105 % of control | [7] 97 % of control

CCN(C(C)=O)c1ccccc1C#N
inactive: [4] 107 % of control | dose: 150.0 mg/kg/injection, schedule: Q01DX001 (ip), vehicle: saline 107 % of control

CCCCCCCCCCCCCCCCSCCCCCCCCCCCSCCCCCCCCCCCCCCCC
inactive: [8] 89 % of control | [9] 94 % of control | [10] 102 % of control

Cn1c(C(N)=O)cc(=O)n1-c1ccc([N+](=O)[O-])cc1
inactive: [6] 101 % of control | [7] 97 % of control | [11] 101 % of control

CC(NCCO)C(O)c1ccccc1 (stereo not drawn)
inactive: dose: 100.0 mg/kg/injection, schedule: Q01DX009 (ip), vehicle: saline 94 % of control | [5] 95 % of control | dose: 200.0 mg/kg/injection, schedule: Q01DX009 (ip), vehicle: saline 94 % of control | dose: 200.0 mg/kg/injection, schedule: Q04DX003 (ip), vehicle: saline 104 % of control | dose: 400.0 mg/kg/injection, schedule: Q01DX009 (ip), vehicle: saline 103 % of control | dose: 400.0 mg/kg/injection, schedule: Q04DX003 (ip), vehicle: saline 97 % of control

CN(C)/C(=C\C(=O)c1ccccc1)c1ccccc1
inactive: [12] 90 % of control | [13] 86 % of control

CCC1CN2CCc3cc(OC)c(OC)cc3C2CC1CC1c2cc(OC)c(OC)cc2CCN1C(=O)C1CCCN1C(=O)OCc1ccccc1 (stereo not drawn)
inactive: dose: 50.0 mg/kg/injection, schedule: Q01DX001 (ip), vehicle: carboxymethylcellulose (CMC) 97 % of control | [1] 101 % of control | [2] 106 % of control | [3] 97 % of control

NNC(=O)c1n[nH]c(C2OC(CO)C(O)C2O)c1N (stereo not drawn)
inactive: dose: 100.0 mg/kg/injection, schedule: Q01DX005 (ip), vehicle: saline 100 % of control | dose: 200.0 mg/kg/injection, schedule: Q01DX005 (ip), vehicle: saline 94 % of control

CCCCCCC(=O)C1C(c2ccc(N(C)C)cc2)CC(=O)C(CCCCC)C1c1ccc(N(C)C)cc1 (stereo not drawn)
inactive: [14] 86 % of control | [12] 89 % of control | [15] 95 % of control | [16] 90 % of control | dose: 400.0 mg/kg/injection, schedule: Q01DX009 (ip), vehicle: saline with Tween-80 95 % of control | [13] 92 % of control

O=C(N=C1C=CC(=NC(=O)c2ccccc2)C=C1)c1ccccc1
inactive: dose: 75.0 mg/kg/injection, schedule: Q04DX003 (ip), vehicle: Klucel (hydroxypropylcellulose) (HPC) 87 % of control | dose: 150.0 mg/kg/injection, schedule: Q04DX003 (ip), vehicle: Klucel (hydroxypropylcellulose) (HPC) 92 % of control | dose: 300.0 mg/kg/injection, schedule: Q04DX003 (ip), vehicle: Klucel (hydroxypropylcellulose) (HPC) 87 % of control

NNC(=O)C1CC2C=CCC(C2)C1 (stereo not drawn)
inactive: dose: 100.0 mg/kg/injection, schedule: Q01DX001 (ip), vehicle: saline with Tween-80 98 % of control | dose: 200.0 mg/kg/injection, schedule: Q01DX001 (ip), vehicle: saline with Tween-80 92 % of control

COc1nc(=O)n(C2CCCO2)cc1I (stereo not drawn)
inactive: dose: 50.0 mg/kg/injection, schedule: Q01DX001 (ip), vehicle: saline 95 % of control | dose: 100.0 mg/kg/injection, schedule: Q01DX001 (ip), vehicle: saline 95 % of control | dose: 200.0 mg/kg/injection, schedule: Q01DX001 (ip), vehicle: saline 90 % of control

COc1cc(N)c([N+](=O)[O-])c(OC)c1
inactive: dose: 25.0 mg/kg/injection, schedule: Q01DX009 (ip), vehicle: saline with Tween-80 98 % of control | [17] 104 % of control | [14] 100 % of control | [12] 106 % of control

Cc1ccc2c(c1N)C(=O)c1ccccc1C2=O
inactive: [1] 103 % of control | [2] 92 % of control | [3] 96 % of control

CCCCNC(=O)Nc1c(C)cccc1Cl
inactive: dose: 100.0 mg/kg/injection, schedule: Q01DX009 (ip), vehicle: Klucel (hydroxypropylcellulose) (HPC) 101 % of control | [6] 101 % of control | dose: 200.0 mg/kg/injection, schedule: Q01DX009 (ip), vehicle: Klucel (hydroxypropylcellulose) (HPC) 90 % of control | [7] 97 % of control | dose: 400.0 mg/kg/injection, schedule: Q01DX009 (ip), vehicle: Klucel (hydroxypropylcellulose) (HPC) 87 % of control | [11] 88 % of control

CC(=N\O)/C(=N\O)C(=O)c1ccccc1
inactive: [14] 110 % of control | [12] 96 % of control | [15] 95 % of control | [16] 101 % of control | [13] 98 % of control

CCCCOc1ccc(OCCCCCCCCCC[N+](C)(C)C)cc1
inactive: dose: 1.56 mg/kg/injection, schedule: Q04DX002 (ip), vehicle: saline 103 % of control | dose: 3.13 mg/kg/injection, schedule: Q04DX002 (ip), vehicle: saline 96 % of control | dose: 6.25 mg/kg/injection, schedule: Q04DX002 (ip), vehicle: saline 96 % of control | dose: 12.5 mg/kg/injection, schedule: Q04DX002 (ip), vehicle: saline 97 % of control and 122 % of control

CCCCB1OCCCO1
inactive: [8] 98 % of control | [9] 88 % of control | [10] 92 % of control

Cc1ccc(N)c(Br)c1
inactive: [17] 99 % of control | [14] 97 % of control

C=CCSc1nc(N)nc2nc[nH]c12
inactive: [17] 122 % of control | [14] 123 % of control | [15] 124 % of control

CS(=O)(=O)n1c(CBr)nc2ccccc21
inactive: dose: 100.0 mg/kg/injection, schedule: Q04DX003 (ip), vehicle: saline sonified 103 % of control | dose: 200.0 mg/kg/injection, schedule: Q04DX003 (ip), vehicle: saline sonified 88 % of control

CCCCC(=O)N(CC)C(=NCC)c1ccc(NC(=O)c2ccc(C(=O)Nc3ccc(C(=NCC)N(CC)C(=O)CCCC)cc3)cc2)cc1
inactive: dose: 25.0 mg/kg/injection, schedule: Q01DX015 (ip), vehicle: methylcellulose (MC) 90 % of control | dose: 50.0 mg/kg/injection, schedule: Q01DX015 (ip), vehicle: methylcellulose (MC) 90 % of control | dose: 100.0 mg/kg/injection, schedule: Q01DX015 (ip), vehicle: methylcellulose (MC) 96 % of control | dose: 200.0 mg/kg/injection, schedule: Q01DX015 (ip), vehicle: methylcellulose (MC) 94 % of control
